In PubChem BioAssay (NCI):
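Each compound was tested at five concentrations against cells in 96-well plates for 48 hours. GI50: concentration for 50% inhibition of growth. The concentration for full growth arrest is given as TGI.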

How the values were obtained:
Experiment in all cases: NCI anticancer screen, dose series, 48 h
SW-620 colon = test system: SW-620 colon
NCI-H460 lung = test system: NCI-H460 lung
RXF 393 renal = test system: RXF 393 renal
HCC-2998 colon = test system: HCC-2998 colon
SK-OV-3 ovarian = test system: SK-OV-3 ovarian
HCT-15 colon = test system: HCT-15 colon
KM12 colon = test system: KM12 colon
HOP-62 NSCLC = test system: HOP-62 NSCLC
LOX IMVI melanoma = test system: LOX IMVI melanoma
CCRF-CEM leukemia = test system: CCRF-CEM leukemia
COLO 205 colon = test system: COLO 205 colon
NCI/ADR-RES ovarian = test system: NCI/ADR-RES ovarian
HS 578T breast = test system: HS 578T breast
MOLT-4 leukemia = test system: MOLT-4 leukemia
EKVX NSCLC = test system: EKVX NSCLC
BT-549 breast = test system: BT-549 breast
A549 NSCLC = test system: A549 NSCLC
HCT-116 colon = test system: HCT-116 colon
NCI-H522 lung = test system: NCI-H522 lung
UO-31 renal = test system: UO-31 renal
OVCAR-3 ovarian = test system: OVCAR-3 ovarian
SF-268 CNS = test system: SF-268 CNS
HT29 colon = test system: HT29 colon
TK-10 renal = test system: TK-10 renal
K-562 leukemia = test system: K-562 leukemia
NCI-H23 lung = test system: NCI-H23 lung
SK-MEL-5 melanoma = test system: SK-MEL-5 melanoma
OVCAR-4 ovarian = test system: OVCAR-4 ovarian
OVCAR-5 ovarian = test system: OVCAR-5 ovarian
PC-3 prostate = test system: PC-3 prostate
T-47D breast = test system: T-47D breast
HOP-92 NSCLC = test system: HOP-92 NSCLC
MDA-MB-435 = test system: MDA-MB-435
UACC-257 melanoma = test system: UACC-257 melanoma
SF-539 CNS = test system: SF-539 CNS
SF-295 CNS = test system: SF-295 CNS
MCF7 breast = test system: MCF7 breast
MALME-3M melanoma = test system: MALME-3M melanoma
DU-145 prostate = test system: DU-145 prostate
NCI-H226 lung = test system: NCI-H226 lung
SNB-19 CNS = test system: SNB-19 CNS
OVCAR-8 ovarian = test system: OVCAR-8 ovarian
SN12C renal = test system: SN12C renal
ACHN renal = test system: ACHN renal
SNB-75 CNS = test system: SNB-75 CNS
IGROV1 ovarian = test system: IGROV1 ovarian
786-0 renal = test system: 786-0 renal
HL-60(TB) leukemia = test system: HL-60(TB) leukemia
A498 renal = test system: A498 renal
M14 melanoma = test system: M14 melanoma
SK-MEL-28 melanoma = test system: SK-MEL-28 melanoma
MDA-MB-231 breast = test system: MDA-MB-231 breast
U251 CNS = test system: U251 CNS
CAKI-1 renal = test system: CAKI-1 renal
SK-MEL-2 melanoma = test system: SK-MEL-2 melanoma
UACC-62 melanoma = test system: UACC-62 melanoma
SR leukemia = test system: SR leukemia
RPMI-8226 leukemia = test system: RPMI-8226 leukemia

COc1ccc2c(Nc3ccc(NS(C)(=O)=O)cc3)c3ccccc3nc2c1
GI50 (SW-620 colon): 276 nM | TGI (SW-620 colon): 3290 nM | GI50 (NCI-H460 lung): 61.8 nM | TGI (NCI-H460 lung): 1110 nM | GI50 (RXF 393 renal): 871 nM | TGI (RXF 393 renal): 2400 nM | GI50 (HCC-2998 colon): 732 nM | TGI (HCC-2998 colon): 2300 nM | GI50 (SK-OV-3 ovarian): 364 nM | TGI (SK-OV-3 ovarian): 5260 nM | GI50 (HCT-15 colon): 1410 nM | TGI (HCT-15 colon): 11400 nM | GI50 (KM12 colon): 533 nM | TGI (KM12 colon): 9190 nM | GI50 (HOP-62 NSCLC): 429 nM | TGI (HOP-62 NSCLC): 2720 nM | GI50 (LOX IMVI melanoma): 285 nM | TGI (LOX IMVI melanoma): 2340 nM | GI50 (CCRF-CEM leukemia): 320 nM | TGI (CCRF-CEM leukemia): 6030 nM | GI50 (COLO 205 colon): 384 nM | TGI (COLO 205 colon): 1580 nM | GI50 (NCI/ADR-RES ovarian): 3630 nM | TGI (NCI/ADR-RES ovarian): 28600 nM | GI50 (HS 578T breast): 292 nM | TGI (HS 578T breast): 2640 nM | GI50 (MOLT-4 leukemia): 111 nM | TGI (MOLT-4 leukemia): 22500 nM | GI50 (EKVX NSCLC): 1430 nM | TGI (EKVX NSCLC): 8200 nM | GI50 (BT-549 breast): 1500 nM | TGI (BT-549 breast): 3670 nM | GI50 (A549 NSCLC): 151 nM | TGI (A549 NSCLC): 2700 nM | GI50 (HCT-116 colon): 262 nM | TGI (HCT-116 colon): 3960 nM | GI50 (NCI-H522 lung): 304 nM | TGI (NCI-H522 lung): 1840 nM | GI50 (UO-31 renal): 809 nM | TGI (UO-31 renal): 8870 nM | GI50 (OVCAR-3 ovarian): 990 nM | TGI (OVCAR-3 ovarian): 3090 nM | GI50 (SF-268 CNS): 469 nM | TGI (SF-268 CNS): 4030 nM | GI50 (HT29 colon): 326 nM | TGI (HT29 colon): 1580 nM | GI50 (TK-10 renal): 596 nM | TGI (TK-10 renal): 4960 nM | GI50 (K-562 leukemia): 674 nM | TGI (K-562 leukemia): > 100000 nM | GI50 (NCI-H23 lung): 475 nM | TGI (NCI-H23 lung): 2490 nM | GI50 (SK-MEL-5 melanoma): 526 nM | TGI (SK-MEL-5 melanoma): 1890 nM | GI50 (OVCAR-4 ovarian): 1230 nM | TGI (OVCAR-4 ovarian): 4130 nM | GI50 (OVCAR-5 ovarian): 1020 nM | TGI (OVCAR-5 ovarian): 4910 nM | GI50 (PC-3 prostate): 735 nM | TGI (PC-3 prostate): 10100 nM | GI50 (T-47D breast): 340 nM | TGI (T-47D breast): 3140 nM | GI50 (HOP-92 NSCLC): 136 nM | TGI (HOP-92 NSCLC): 2660 nM | GI50 (MDA-MB-435): 817 nM | TGI (MDA-MB-435): 2400 nM | GI50 (UACC-257 melanoma): 628 nM | TGI (UACC-257 melanoma): 2170 nM | GI50 (SF-539 CNS): 525 nM | TGI (SF-539 CNS): 2280 nM | GI50 (SF-295 CNS): 381 nM | TGI (SF-295 CNS): 2530 nM | GI50 (MCF7 breast): 300 nM | TGI (MCF7 breast): 1990 nM | GI50 (MALME-3M melanoma): 652 nM | TGI (MALME-3M melanoma): 2380 nM | GI50 (DU-145 prostate): 315 nM | TGI (DU-145 prostate): 6460 nM | GI50 (NCI-H226 lung): 229 nM | TGI (NCI-H226 lung): 1590 nM | GI50 (SNB-19 CNS): 445 nM | TGI (SNB-19 CNS): 11400 nM | GI50 (OVCAR-8 ovarian): 432 nM | TGI (OVCAR-8 ovarian): 5260 nM | GI50 (SN12C renal): 487 nM | TGI (SN12C renal): 13200 nM | GI50 (ACHN renal): 217 nM | TGI (ACHN renal): 1580 nM | GI50 (SNB-75 CNS): 718 nM | TGI (SNB-75 CNS): 2120 nM | GI50 (IGROV1 ovarian): 418 nM | TGI (IGROV1 ovarian): 16700 nM | GI50 (786-0 renal): 544 nM | TGI (786-0 renal): 4240 nM | GI50 (HL-60(TB) leukemia): 427 nM | TGI (HL-60(TB) leukemia): 4450 nM | GI50 (A498 renal): 375 nM | TGI (A498 renal): 2050 nM | GI50 (M14 melanoma): 599 nM | TGI (M14 melanoma): 2030 nM | GI50 (SK-MEL-28 melanoma): 1380 nM | TGI (SK-MEL-28 melanoma): 3450 nM | GI50 (MDA-MB-231 breast): 1520 nM | TGI (MDA-MB-231 breast): 6650 nM | GI50 (U251 CNS): 475 nM | TGI (U251 CNS): 9020 nM | GI50 (CAKI-1 renal): 450 nM | TGI (CAKI-1 renal): 5640 nM | GI50 (SK-MEL-2 melanoma): 334 nM | TGI (SK-MEL-2 melanoma): 2290 nM | GI50 (UACC-62 melanoma): 383 nM | TGI (UACC-62 melanoma): 1930 nM | GI50 (SR leukemia): 112 nM | TGI (SR leukemia): 6460 nM | GI50 (RPMI-8226 leukemia): 431 nM | TGI (RPMI-8226 leukemia): 4090 nM
